IC50 data for 15 molecules are collected here from US20160193216A1 (Nimbus Iris, Inc., priority 2012, published 2016).

The target of test [1] is T1, IRAK4 (Homo sapiens, UniProt Q9NWZ3).
T1 sequence (Q9NWZ3 1-460): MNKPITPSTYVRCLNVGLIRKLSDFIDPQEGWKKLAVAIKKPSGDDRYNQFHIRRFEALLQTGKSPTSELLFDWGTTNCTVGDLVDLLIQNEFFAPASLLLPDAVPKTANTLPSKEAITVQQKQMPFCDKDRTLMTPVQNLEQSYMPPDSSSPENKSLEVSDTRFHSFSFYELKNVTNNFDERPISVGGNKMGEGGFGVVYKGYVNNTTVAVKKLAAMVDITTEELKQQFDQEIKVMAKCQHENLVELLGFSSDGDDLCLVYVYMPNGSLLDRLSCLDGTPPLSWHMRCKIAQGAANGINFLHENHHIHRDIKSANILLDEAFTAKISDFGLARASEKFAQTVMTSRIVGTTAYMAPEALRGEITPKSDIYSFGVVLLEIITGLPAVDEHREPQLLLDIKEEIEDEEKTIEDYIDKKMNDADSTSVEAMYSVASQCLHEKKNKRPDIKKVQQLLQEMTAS
Description: IRAK-4 activity inhibition assay (Caliper). Conditions: 37 μM ATP, 3.5 nM IRAK4. Format: biochemical.

Test [2] has as its system THP-1 cells. Put plainly: LPS induced cytokine (TNFα and IL8) production assay in THP-1 cells. The test is classed as cell-based. Conditions: Homo sapiens, 300 ng/mL LPS. Here is the method: Cytokine Production Assay
Provided compounds were also assayed in an LPS (Lipopolysacharide) or R848 (TLR-7 agonist) induced cytokine (TNFα and IL8) production assay in THP-1 cells, human peripheral blood mononuclear cells (hPBMC), and whole blood. The exemplary protocol for this assay in THP-1 cells was as follows below.
THP-1 cells from ATCC (TIB-202) were cultured in RPMI Medium 1640 (Invitrogen, Cat No. A10491-01), 10% fetal bovine serum (Invitrogen, Cat No. 10099141, Lot No. 8172882) containing 100 U/mL Penicillin, 100 μg/mL streptomycin (Invitrogen, Cat No. 15140-122), and 50 uM 2-Mercaptoethanol (Invitrogen, Cat No. 21985023). LPS-EK ultra pure (Invivogen, Cat No. tlrl-peklps) was used to induce IL8 and TNFα production, that was detected in the cell culture supernatant by IL8 HTRF kit (Cisbio, Cat No. 62IL8PEB) and TNFα HTRF kit (Cisbio, Cat No. 62TNFPEB), as per manufacturer instructions. Cells were cultured in 96 well assay plates at 100,000 cells per well, and compounds diluted in final 0.3% DMSO were pre-incubated with cells for 1 hour prior to stimulation with 300 ng/mL LPS. Cytokine production in cell supernatant was measured at 5 hours for TNFα and IL8 production, and for 16 hours for IL8 production and assessment of cell viability.
The compound numbers correspond to the compound numbers in Table 1. […] “NA” stands for “not assayed.”

Where a name gives a salt, the structure may show the parent alone. Read-outs that look alike come from different tables or passages of the source. Some results are limits rather than exact numbers.

Usually IC50 stands for the concentration at which inhibition is half-maximal. As to `CN(C)[C@H]1CC[C@H](Oc2ncnc3sc4c(c23)[C@@H](CC(O)C(N)=O)CC4)CC1` (stereo partly drawn) [Compound I-57, 3-[(3R)-12-[[4-(dimethylamino)cyclohexyl]oxy]-7-thia-9,11-diazatricyclo[6.4.0.0[2,6]]dodeca-1(8),2(6),9,11-tetraen-3-yl]-2-hydroxypropanamide], the IC50 is less than 5000 nM in test [1], no more than 500 nM in test [2] (read-out: IL8 production IC50) and no more than 500 nM in test [2] (read-out: TNFα production IC50).
With `NC(=O)[C@@H](O)C[C@H]1CCc2sc3ncnc(O[C@H]4CC[C@H](N5CCCCC5)CC4)c3c21` [Compound I-217, (S)-2-hydroxy-3-((R)-4-(((1r,4R)-4-(piperidin-1-yl)cyclohexyl)oxy)-6,7-dihydro-5H-cyclopenta[4,5]thieno[2,3-d]pyrimidin-5-yl)propanamide], the IC50 in test [1] is less than 5000 nM; in test [2] (read-out: IL8 production IC50), no more than 500 nM; in test [2] (read-out: TNFα production IC50) it was no more than 500 nM.
For the molecule `CN(C)[C@H]1CC[C@H](Oc2ncnc3sc4c(c23)[C@@H](C[C@@H](O)C(F)(F)F)CC4)CC1` [Compound I-68, (R)-3-((R)-4-(((1r,4R)-4-(dimethylamino)cyclohexyl)oxy)-6,7-dihydro-5H-cyclopenta[4,5]thieno[2,3-d]pyrimidin-5-yl)-1,1,1-trifluoropropan-2-ol], the IC50 in test [1] was less than 5000 nM; in test [2] (read-out: IL8 production IC50) it was no more than 500 nM; in test [2] (read-out: TNFα production IC50) it was 500 to 1000 nM.
Turning to `NC(=O)C[C@H]1CCc2sc3ncnc(O[C@H]4CC[C@H](N5CCCCC5)CC4)c3c21` [Compound I-214, 2-[(3R)-12-[[4-(piperidin-1-yl)cyclohexyl]oxy]-7-thia-9,11-diazatricyclo[6.4.0.0[2,6]]dodeca-1(8),2(6),9,11-tetraen-3-yl]acetamide], the concentration for half-maximal inhibition (IC50) in test [1] is less than 5000 nM; in test [2] (read-out: IL8 production IC50), no more than 500 nM; in test [2] (read-out: TNFα production IC50), no more than 500 nM.
For `CN(CC(=O)N1CCCC1)[C@H]1CC[C@H](Oc2ncnc3sc4c(c23)[C@@H](CCO)CC4)CC1` [Compound I-90, 2-(((1R,4r)-4-(((R)-5-(2-hydroxyethyl)-6,7-dihydro-5H-cyclopenta[4,5]thieno[2,3-d]pyrimidin-4-yl)oxy)cyclohexyl)(methyl)amino)-1-(pyrrolidin-1-yl)ethanone], the IC50 in test [1] is less than 5000 nM; in test [2] (read-out: TNFα production IC50) it was 1000 to 5000 nM.
With `CC[C@@H](O)C[C@H]1CCc2sc3ncnc(O[C@H]4CC[C@H](N(C)C)CC4)c3c21` [Compound I-106], the values for the concentration for half-maximal inhibition (IC50) in test [1], in test [2] (read-out: IL8 production IC50) and in test [2] (read-out: TNFα production IC50) were less than 5000 nM, 500 to 1000 nM and 500 to 1000 nM, respectively.
Consider `CN(C)[C@H]1CC[C@H](Nc2ncnc3sc4c(c23)CC(C)(C)OC4)CC1` [Compound I-194, 4-N-[12, 12-dimethyl-11-oxa-8-thia-4,6-diazatricyclo[7.4.0.0[2,7]]trideca-1(9),2(7),3,5-tetraen-3-yl]-1-N, 1-N-dimethylcyclohexane-1,4-diamine], for which the 50% inhibitory concentration (IC50) in test [1] is less than 5000 nM; in test [2] (read-out: IL8 production IC50), 1000 to 5000 nM; in test [2] (read-out: TNFα production IC50), no less than 5000 nM.
Regarding `CC[C@@H](O)C[C@H]1CCc2sc3ncnc(O[C@H]4CC[C@H](N(C)CC(=O)N5CCCC5)CC4)c3c21` [Compound I-71, 2-[(4-[[(3R)-3-[(2R)-2-hydroxybutyl]-7-thia-9,11-diazatricyclo[6.4.0.0[2,6]]dodeca-1(8),2(6),9,11-tetraen-12-yl]oxy]cyclohexyl)(methyl)amino]-1-(pyrrolidin-1-yl)ethan-1-one], the figures for the IC50 in test [1], in test [2] (read-out: IL8 production IC50) and in test [2] (read-out: TNFα production IC50) were less than 5000 nM, 1000 to 5000 nM and 500 to 1000 nM, respectively.
For `CN(C)[C@H]1CC[C@H](Oc2ncnc3sc4c(c23)[C@@H](CCC(N)=O)CC4)CC1` [Compound I-44, 3-[(3S)-12-[[4-(dimethylamino)cyclohexyl]oxy]-7-thia-9,11-diazatricyclo[6.4.0.0[2,6]]dodeca-1(8),2(6),9,11-tetraen-3-yl]propanamide] the same measures were less than 5000 nM, 1000 to 5000 nM and 500 to 1000 nM.
For `CN(C)[C@H]1CC[C@H](Oc2ncnc3sc4c(c23)C[C@H](CCO)CC4)CC1` [Compound I-110, 2-[(12R)-3-[[4-(dimethylamino)cyclohexyl]oxy]-8-thia-4,6-diazatricyclo[7.4.0.0[2,7]]trideca-1(9),2(7),3,5-tetraen-12-yl]ethan-1-ol formate] the same measures were less than 5000 nM, no more than 500 nM and 500 to 1000 nM.
Consider `C[C@@H](O)C[C@H]1CCc2sc3ncnc(O[C@H]4CC[C@H](N(C)CC(=O)N5CCCC5)CC4)c3c21` [Compound I-109, 2-[(4-[[(3R)-3-[(2R)-2-hydroxypropyl]-7-thia-9,11-diazatricyclo[6.4.0.0[2,6]]dodeca-1(8),2(6),9,11-tetraen-12-yl]oxy]cyclohexyl)(methyl)amino]-1-(pyrrolidin-1-yl)ethan-1-one], for which the half-maximal inhibitory concentration (IC50) in test [1] is less than 5000 nM; in test [2] (read-out: TNFα production IC50), 500 to 1000 nM.
Turning to `NC(=O)[C@H](O)C[C@H]1CCc2sc3ncnc(O[C@H]4CC[C@H](N5CCCC5)CC4)c3c21` [Compound I-228, (R)-2-hydroxy-3-((R)-4-(((1r,4R)-4-(pyrrolidin-1-yl)cyclohexyl)oxy)-6,7-dihydro-5H-cyclopenta[4,5]thieno[2,3-d]pyrimidin-5-yl)propanamide], the IC50 is less than 5000 nM in test [1], no more than 500 nM in test [2] (read-out: IL8 production IC50) and no more than 500 nM in test [2] (read-out: TNFα production IC50).
As for `CO[C@H](C[C@H]1CCc2sc3ncnc(O[C@H]4CC[C@H](N(C)C)CC4)c3c21)C(N)=O` [Compound I-77, (2R)-3-[(3R)-12-[[4-(dimethylamino)cyclohexyl]oxy]-7-thia-9,11-diazatricyclo[6.4.0.0[2,6]]dodeca-1(8),2(6),9,11-tetraen-3-yl]-2-methoxypropanamide], the IC50 is less than 5000 nM in test [1], 500 to 1000 nM in test [2] (read-out: IL8 production IC50) and 1000 to 5000 nM in test [2] (read-out: TNFα production IC50).
`NC(=O)[C@@H](O)C[C@H]1CCc2sc3ncnc(O[C@H]4CC[C@H](N)CC4)c3c21` [Compound I-135, (S)-3-((R)-4-(((1r,4R)-4-aminocyclohexyl)oxy)-6,7-dihydro-5H-cyclopenta[4,5]thieno[2,3-d]pyrimidin-5-yl)-2-hydroxypropanamide]: the IC50 in test [1] was less than 5000 nM; in test [2] (read-out: IL8 production IC50) it was 500 to 1000 nM; in test [2] (read-out: TNFα production IC50), 500 to 1000 nM.
On to `CN(C)[C@H]1CC[C@H](Oc2ncnc3sc4c(c23)[C@@H](CC(C#N)C(N)=O)CC4)CC1` (mixture of isomers) [Compound I-51, 2-cyano-3-(12-[[4-(dimethylamino)cyclohexyl]oxy]-7-thia-9,11-diazatricyclo[6.4.0.0[2,6]]dodeca-1(12),2(6),8,10-tetraen-3-yl)propanamide], for which the values for the 50% inhibitory concentration (IC50) in test [1], in test [2] (read-out: IL8 production IC50) and in test [2] (read-out: TNFα production IC50) were less than 5000 nM, 500 to 1000 nM and 500 to 1000 nM, respectively.
